Measurements as given in patent US10844077B2, “Thiazolyl-containing compounds for treating proliferative diseases” (Dana-Farber Cancer Institute, Inc., priority 2014, dated 2020).
Values joined by “and” are separate entries in the source; they are usually repeats but may differ in a detail not shown here. Equal entries are not always repeated.

What was measured:
Test in all cases: KINATIV assay
Format in all cases: cell-based
Settings in all cases: 1 μM, 90 minutes, BCWM.1 cells
AKT1 = AKT1 (Homo sapiens (Human), UniProt P31749)
Sequence of AKT1 (P31749 whole entry): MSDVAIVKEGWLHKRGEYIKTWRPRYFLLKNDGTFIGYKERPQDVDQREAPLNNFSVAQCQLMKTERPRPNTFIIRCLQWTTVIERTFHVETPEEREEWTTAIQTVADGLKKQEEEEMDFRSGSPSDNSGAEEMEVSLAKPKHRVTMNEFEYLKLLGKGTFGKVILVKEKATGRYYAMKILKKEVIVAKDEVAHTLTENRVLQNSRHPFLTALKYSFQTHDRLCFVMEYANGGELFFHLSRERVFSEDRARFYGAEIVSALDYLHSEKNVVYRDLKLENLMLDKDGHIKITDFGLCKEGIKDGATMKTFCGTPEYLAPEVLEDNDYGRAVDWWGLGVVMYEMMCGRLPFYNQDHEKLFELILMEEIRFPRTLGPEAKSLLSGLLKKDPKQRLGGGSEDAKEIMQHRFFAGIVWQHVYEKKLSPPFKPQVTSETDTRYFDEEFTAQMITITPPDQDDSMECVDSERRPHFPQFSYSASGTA
Experimental: (§1) The cells were harvested and lysed. The lysates were directly labeled with an ATP-biotin probe. Bound kinases were identified and quantitated by ACTIVX as described in Patricelli et al., Biochemistry, 2007, 46(2): 350-358. The compounds were tested in duplicates against duplicate or quadruplicate control samples.

BARK1 = BARK1 (Homo sapiens (Human), UniProt P25098)
Experimental: as §1

BLK = BLK (Homo sapiens (Human), UniProt P51451)
Sequence of BLK (P51451 whole entry): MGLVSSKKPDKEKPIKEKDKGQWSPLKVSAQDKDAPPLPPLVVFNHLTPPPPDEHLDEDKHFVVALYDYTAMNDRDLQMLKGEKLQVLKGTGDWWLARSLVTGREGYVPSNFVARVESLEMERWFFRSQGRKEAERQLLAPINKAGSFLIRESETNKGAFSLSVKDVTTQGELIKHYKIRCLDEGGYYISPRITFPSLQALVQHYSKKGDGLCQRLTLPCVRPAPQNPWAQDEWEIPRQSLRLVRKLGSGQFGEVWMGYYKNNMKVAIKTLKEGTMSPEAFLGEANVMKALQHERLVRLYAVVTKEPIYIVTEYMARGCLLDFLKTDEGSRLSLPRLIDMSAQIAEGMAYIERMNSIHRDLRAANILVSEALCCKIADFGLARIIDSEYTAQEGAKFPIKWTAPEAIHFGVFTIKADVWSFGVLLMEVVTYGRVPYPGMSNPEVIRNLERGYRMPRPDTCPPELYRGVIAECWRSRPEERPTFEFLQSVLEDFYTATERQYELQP
Experimental: as §1

BTK = BTK (Homo sapiens (Human), UniProt Q06187)
Sequence of BTK (Q06187 whole entry, looked up): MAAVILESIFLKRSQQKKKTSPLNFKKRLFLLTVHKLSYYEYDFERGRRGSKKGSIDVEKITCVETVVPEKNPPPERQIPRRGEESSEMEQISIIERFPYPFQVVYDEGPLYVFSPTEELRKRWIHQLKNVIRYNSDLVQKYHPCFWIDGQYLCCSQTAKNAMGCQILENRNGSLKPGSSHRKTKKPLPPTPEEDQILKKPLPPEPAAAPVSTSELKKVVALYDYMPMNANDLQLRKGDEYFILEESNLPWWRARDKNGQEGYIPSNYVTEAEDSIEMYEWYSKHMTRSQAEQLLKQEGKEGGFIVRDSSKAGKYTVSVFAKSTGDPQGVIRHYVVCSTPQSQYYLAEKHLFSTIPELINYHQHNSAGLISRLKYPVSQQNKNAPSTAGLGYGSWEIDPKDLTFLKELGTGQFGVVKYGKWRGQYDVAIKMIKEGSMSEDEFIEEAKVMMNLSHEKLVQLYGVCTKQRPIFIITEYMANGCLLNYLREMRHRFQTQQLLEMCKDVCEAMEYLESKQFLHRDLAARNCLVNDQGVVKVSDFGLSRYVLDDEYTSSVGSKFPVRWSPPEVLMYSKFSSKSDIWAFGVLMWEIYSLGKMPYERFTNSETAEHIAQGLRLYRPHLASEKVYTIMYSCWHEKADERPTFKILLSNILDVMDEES
Experimental: as §1

CDK6 = CDK6 (Homo sapiens (Human), UniProt Q00534)
Sequence of CDK6 (Q00534 whole entry): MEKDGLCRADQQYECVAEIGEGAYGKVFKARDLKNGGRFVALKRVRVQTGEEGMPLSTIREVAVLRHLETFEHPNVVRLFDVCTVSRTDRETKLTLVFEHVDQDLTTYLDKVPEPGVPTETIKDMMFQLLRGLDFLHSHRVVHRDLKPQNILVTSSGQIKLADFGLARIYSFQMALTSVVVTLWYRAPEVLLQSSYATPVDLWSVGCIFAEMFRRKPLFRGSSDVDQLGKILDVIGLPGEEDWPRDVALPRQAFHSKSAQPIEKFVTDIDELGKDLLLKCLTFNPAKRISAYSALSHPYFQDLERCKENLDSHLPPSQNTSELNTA
Experimental: as §1

CSK = CSK (Homo sapiens (Human), UniProt P41240)
Sequence of CSK (P41240 whole entry): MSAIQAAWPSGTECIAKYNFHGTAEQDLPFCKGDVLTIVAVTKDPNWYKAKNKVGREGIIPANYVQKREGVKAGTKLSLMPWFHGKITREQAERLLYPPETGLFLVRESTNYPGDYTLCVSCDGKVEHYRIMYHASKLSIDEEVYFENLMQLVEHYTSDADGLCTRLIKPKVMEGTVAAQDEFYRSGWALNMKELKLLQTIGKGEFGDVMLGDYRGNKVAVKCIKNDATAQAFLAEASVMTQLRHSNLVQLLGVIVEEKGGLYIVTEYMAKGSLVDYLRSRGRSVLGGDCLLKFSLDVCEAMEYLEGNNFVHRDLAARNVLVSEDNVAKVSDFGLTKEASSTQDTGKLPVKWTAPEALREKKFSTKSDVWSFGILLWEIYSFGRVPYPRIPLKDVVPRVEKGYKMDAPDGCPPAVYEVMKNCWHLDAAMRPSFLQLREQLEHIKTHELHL
Experimental: as §1

EphB1 = EphB1 (Homo sapiens (Human), UniProt P54762)
Experimental: as §1

EphB2 = EphB2 (Homo sapiens (Human), UniProt P29323)
Experimental: as §1

FRK = FRK (Homo sapiens (Human), UniProt P42685)
Experimental: as §1

IKKa = IKKa (Homo sapiens (Human), UniProt O15111)
Experimental: as §1

IRAK1 = IRAK1 (Homo sapiens (Human), UniProt P51617)
Experimental: as §1

IRE1 = IRE1 (Homo sapiens (Human), UniProt O75460)
Experimental: as §1

MAP3K2, MAP3K3 = tested on: MAP3K2, MAP3K3
Experimental: as §1

MAP3K3 = MAP3K3 (Homo sapiens (Human), UniProt Q99759)
Experimental: as §1

MARK3 = MARK3 (Homo sapiens (Human), UniProt P27448)
Experimental: as §1

MASTL = MASTL (Homo sapiens (Human), UniProt Q96GX5)
Sequence of MASTL (Q96GX5 whole entry): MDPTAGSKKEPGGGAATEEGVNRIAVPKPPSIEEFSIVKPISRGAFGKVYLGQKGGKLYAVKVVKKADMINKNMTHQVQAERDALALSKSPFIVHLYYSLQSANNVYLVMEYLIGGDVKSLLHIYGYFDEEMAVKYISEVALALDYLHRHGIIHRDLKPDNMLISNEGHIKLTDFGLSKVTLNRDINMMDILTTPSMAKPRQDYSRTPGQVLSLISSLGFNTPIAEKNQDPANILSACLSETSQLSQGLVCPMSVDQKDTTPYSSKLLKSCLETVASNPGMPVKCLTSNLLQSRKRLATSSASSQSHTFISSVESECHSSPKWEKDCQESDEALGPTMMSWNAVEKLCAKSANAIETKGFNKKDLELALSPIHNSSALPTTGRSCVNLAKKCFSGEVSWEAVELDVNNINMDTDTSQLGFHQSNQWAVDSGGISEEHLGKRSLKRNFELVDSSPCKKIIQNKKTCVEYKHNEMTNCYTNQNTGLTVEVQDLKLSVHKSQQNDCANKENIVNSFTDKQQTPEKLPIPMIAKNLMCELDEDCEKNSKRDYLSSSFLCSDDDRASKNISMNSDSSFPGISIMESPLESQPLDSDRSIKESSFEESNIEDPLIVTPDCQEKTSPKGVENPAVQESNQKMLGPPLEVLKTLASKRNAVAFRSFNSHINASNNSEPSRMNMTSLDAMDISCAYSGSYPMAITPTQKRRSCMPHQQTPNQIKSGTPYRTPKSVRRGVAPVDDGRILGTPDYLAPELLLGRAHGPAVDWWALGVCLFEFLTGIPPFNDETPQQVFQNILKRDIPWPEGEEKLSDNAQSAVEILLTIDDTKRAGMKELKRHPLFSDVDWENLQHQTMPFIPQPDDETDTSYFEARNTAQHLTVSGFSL
Experimental: as §1

MELK = MELK (Homo sapiens (Human), UniProt Q14680)
Experimental: as §1

MSK1 domain1 = MSK1 domain1 (Homo sapiens (Human), UniProt O75582)
Experimental: as §1

MSK1, MSK2 domain1 = tested on: MSK1, MSK2 domain1
Experimental: as §1

MSK2 domain1 = MSK2 domain1 (Homo sapiens (Human), UniProt O75676)
Experimental: as §1

MST1 = MST1 (Homo sapiens (Human), UniProt Q13043)
Experimental: as §1

MST2 = MST2 (Homo sapiens (Human), UniProt Q13188)
Experimental: as §1

MST4 = MST4 (Homo sapiens (Human), UniProt Q9P289)
Sequence of MST4 (Q9P289 whole entry): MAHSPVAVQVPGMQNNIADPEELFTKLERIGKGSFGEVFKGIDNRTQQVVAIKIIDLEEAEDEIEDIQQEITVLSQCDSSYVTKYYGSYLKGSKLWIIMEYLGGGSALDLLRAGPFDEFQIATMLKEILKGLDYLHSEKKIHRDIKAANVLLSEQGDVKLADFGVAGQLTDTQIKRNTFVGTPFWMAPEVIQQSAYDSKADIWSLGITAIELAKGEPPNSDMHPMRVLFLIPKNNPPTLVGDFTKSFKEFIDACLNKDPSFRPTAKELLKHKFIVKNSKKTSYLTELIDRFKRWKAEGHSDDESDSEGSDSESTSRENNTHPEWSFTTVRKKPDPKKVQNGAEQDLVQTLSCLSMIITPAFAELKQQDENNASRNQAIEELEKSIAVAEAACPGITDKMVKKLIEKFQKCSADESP
Experimental: as §1

NEK2 = NEK2 (Homo sapiens (Human), UniProt P51955)
Experimental: as §1

NEK3 = NEK3 (Homo sapiens (Human), UniProt P51956)
Experimental: as §1

NLK = NLK (Homo sapiens (Human), UniProt Q9UBE8)
Experimental: as §1

OSR1 = OSR1 (Homo sapiens (Human), UniProt O95747)
Experimental: as §1

PEK = PEK (Homo sapiens (Human), UniProt Q9NZJ5)
Experimental: as §1

PI4KB = PI4KB (Homo sapiens (Human), UniProt Q9UBF8)
Sequence of PI4KB (Q9UBF8 whole entry): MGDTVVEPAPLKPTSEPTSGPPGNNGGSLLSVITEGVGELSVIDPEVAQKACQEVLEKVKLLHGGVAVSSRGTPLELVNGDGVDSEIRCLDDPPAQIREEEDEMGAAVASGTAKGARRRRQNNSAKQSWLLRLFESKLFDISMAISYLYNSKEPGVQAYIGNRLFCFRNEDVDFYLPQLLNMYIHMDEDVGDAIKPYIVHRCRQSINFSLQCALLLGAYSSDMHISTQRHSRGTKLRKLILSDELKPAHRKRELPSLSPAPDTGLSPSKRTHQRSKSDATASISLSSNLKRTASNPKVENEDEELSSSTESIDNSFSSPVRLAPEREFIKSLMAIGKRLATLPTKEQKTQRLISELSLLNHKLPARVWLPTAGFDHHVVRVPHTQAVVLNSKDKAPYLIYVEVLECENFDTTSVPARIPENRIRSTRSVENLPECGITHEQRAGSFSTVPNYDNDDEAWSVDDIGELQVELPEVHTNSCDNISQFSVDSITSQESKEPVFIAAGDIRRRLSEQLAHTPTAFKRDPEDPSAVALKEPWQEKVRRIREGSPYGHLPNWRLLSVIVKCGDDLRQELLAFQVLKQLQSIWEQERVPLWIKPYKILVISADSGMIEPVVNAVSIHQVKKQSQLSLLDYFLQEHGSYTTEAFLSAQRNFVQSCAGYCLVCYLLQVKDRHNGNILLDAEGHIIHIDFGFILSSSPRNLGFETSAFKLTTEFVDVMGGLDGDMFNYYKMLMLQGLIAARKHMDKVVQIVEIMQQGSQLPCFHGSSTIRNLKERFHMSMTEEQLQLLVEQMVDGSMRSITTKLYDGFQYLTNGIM
Experimental: as §1

PIP4K2C = PIP4K2C (Homo sapiens (Human), UniProt Q8TBX8)
Sequence of PIP4K2C (Q8TBX8 whole entry): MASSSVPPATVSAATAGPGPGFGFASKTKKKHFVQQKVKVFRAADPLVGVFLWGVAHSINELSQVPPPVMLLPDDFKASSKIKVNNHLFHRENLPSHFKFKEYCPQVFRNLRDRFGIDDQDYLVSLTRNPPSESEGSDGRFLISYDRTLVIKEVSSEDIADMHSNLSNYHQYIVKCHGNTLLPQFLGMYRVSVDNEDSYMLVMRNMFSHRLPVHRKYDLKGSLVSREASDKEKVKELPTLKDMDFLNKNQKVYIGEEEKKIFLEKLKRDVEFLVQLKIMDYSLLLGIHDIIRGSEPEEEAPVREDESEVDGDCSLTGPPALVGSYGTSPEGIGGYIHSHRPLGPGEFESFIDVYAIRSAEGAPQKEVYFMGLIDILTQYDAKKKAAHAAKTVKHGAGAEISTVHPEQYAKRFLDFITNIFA
Experimental: as §1

PITSLRE = tested on: PITSLRE
Experimental: as §1

PKD2 = PKD2 (Homo sapiens (Human), UniProt Q9BZL6)
Experimental: as §1

RSK3 = RSK3 (Homo sapiens (Human), UniProt Q15349)
Experimental: as §1

RSK3 domain1 = RSK3 domain1 (Homo sapiens (Human), UniProt Q15349)
Experimental: as §1

SRPK1 = SRPK1 (Homo sapiens (Human), UniProt Q96SB4)
Experimental: as §1

STK33 = STK33 (Homo sapiens (Human), UniProt Q9BYT3)
Experimental: as §1

TAK1 = TAK1 (Homo sapiens (Human), UniProt O43318)
Experimental: as §1

VRK2 = VRK2 (Homo sapiens (Human), UniProt Q86Y07)
Experimental: as §1

Wnk1, Wnk2, Wnk4 = tested on: Wnk1, Wnk2, Wnk4
Experimental: as §1

eEF2K = eEF2K (Homo sapiens (Human), UniProt O00418)
Experimental: as §1

p70S6K = p70S6K (Homo sapiens (Human), UniProt P23443)
Experimental: as §1

SMILES: C=CC(=O)N1CC[C@@H](Nc2nccc(Nc3ncc(C(=O)Nc4c(C)cccc4C)s3)n2)C1 [Example I-4]
- % change of MS signal compared to control sample (AKT1): −11.0%
- % change of MS signal compared to control sample (BARK1): −8.1%
- % change of MS signal compared to control sample (BLK): >95%
- % change of MS signal compared to control sample (BTK): 97.0% and >90%
- % change of MS signal compared to control sample (CDK6): 7.8%
- % change of MS signal compared to control sample (CSK): 35.7%
- % change of MS signal compared to control sample (EphB1): >97%
- % change of MS signal compared to control sample (EphB2): >90%
- % change of MS signal compared to control sample (FRK): 87.5%
- % change of MS signal compared to control sample (IKKa): 6.4%
- % change of MS signal compared to control sample (IRAK1): 20.3%
- % change of MS signal compared to control sample (IRE1): −44.3%
- % change of MS signal compared to control sample (MAP3K2, MAP3K3): 24.8%
- % change of MS signal compared to control sample (MAP3K3): −0.7%
- % change of MS signal compared to control sample (MARK3): 13.5%
- % change of MS signal compared to control sample (MASTL): −2.9% and −0.3%
- % change of MS signal compared to control sample (MELK): −11.7%
- % change of MS signal compared to control sample (MSK1 domain1): −15.8%
- % change of MS signal compared to control sample (MSK1, MSK2 domain1): −28.9%
- % change of MS signal compared to control sample (MSK2 domain1): −9.6%
- % change of MS signal compared to control sample (MST1): 7.0%
- % change of MS signal compared to control sample (MST2): 12.3%
- % change of MS signal compared to control sample (MST4): −13.2%
- % change of MS signal compared to control sample (NEK2): 22.3%
- % change of MS signal compared to control sample (NEK3): 3.5%
- % change of MS signal compared to control sample (NLK): 6.7%
- % change of MS signal compared to control sample (OSR1): 26.7%
- % change of MS signal compared to control sample (PEK): −44.9%
- % change of MS signal compared to control sample (PI4KB): 20.0% and 16.7%
- % change of MS signal compared to control sample (PIP4K2C): 71.0% and 43.0%
- % change of MS signal compared to control sample (PITSLRE): −13.6%
- % change of MS signal compared to control sample (PKD2): 12.9%
- % change of MS signal compared to control sample (RSK3): 16.8%
- % change of MS signal compared to control sample (RSK3 domain1): −26.9%
- % change of MS signal compared to control sample (SRPK1): −2.1%
- % change of MS signal compared to control sample (STK33): −23.0%
- % change of MS signal compared to control sample (TAK1): 27.8%
- % change of MS signal compared to control sample (VRK2): −30.6%
- % change of MS signal compared to control sample (Wnk1, Wnk2, Wnk4): −0.5%
- % change of MS signal compared to control sample (eEF2K): 0.3%
- % change of MS signal compared to control sample (p70S6K): −102.3%

SMILES: C=CC(=O)N1CCCCC(Nc2nccc(Nc3ncc(C(=O)Nc4c(C)cccc4C)s3)n2)C1 (stereo not shown) [Example I-7]
- % change of MS signal compared to control sample (AKT1): −16.4%
- % change of MS signal compared to control sample (BARK1): −29.7%
- % change of MS signal compared to control sample (BLK): >95%
- % change of MS signal compared to control sample (BTK): 98.9% and >90%
- % change of MS signal compared to control sample (CDK6): 4.1%
- % change of MS signal compared to control sample (CSK): 76.5% and 75.7%
- % change of MS signal compared to control sample (EphB1): >97%
- % change of MS signal compared to control sample (EphB2): >90%
- % change of MS signal compared to control sample (FRK): 93.3%
- % change of MS signal compared to control sample (IKKa): −3.5%
- % change of MS signal compared to control sample (IRAK1): 19.0%
- % change of MS signal compared to control sample (IRE1): −15.7%
- % change of MS signal compared to control sample (MAP3K2, MAP3K3): 15.6%
- % change of MS signal compared to control sample (MAP3K3): 42.8%
- % change of MS signal compared to control sample (MARK3): 12.7%
- % change of MS signal compared to control sample (MASTL): −10.9% and −13.8%
- % change of MS signal compared to control sample (MELK): −11.0%
- % change of MS signal compared to control sample (MSK1 domain1): −40.5%
- % change of MS signal compared to control sample (MSK1, MSK2 domain1): −40.4%
- % change of MS signal compared to control sample (MSK2 domain1): −45.3%
- % change of MS signal compared to control sample (MST1): 3.0%
- % change of MS signal compared to control sample (MST2): 6.5%
- % change of MS signal compared to control sample (MST4): 11.6%
- % change of MS signal compared to control sample (NEK2): 8.5%
- % change of MS signal compared to control sample (NEK3): 15.6%
- % change of MS signal compared to control sample (NLK): 4.2%
- % change of MS signal compared to control sample (OSR1): 22.0%
- % change of MS signal compared to control sample (PEK): 2.6%
- % change of MS signal compared to control sample (PI4KB): 36.0% and 35.3%
- % change of MS signal compared to control sample (PIP4K2C): 70.9% and 60.1%
- % change of MS signal compared to control sample (PITSLRE): −9.3%
- % change of MS signal compared to control sample (PKD2): 10.0%
- % change of MS signal compared to control sample (RSK3): 12.6%
- % change of MS signal compared to control sample (RSK3 domain1): −48.6%
- % change of MS signal compared to control sample (SRPK1): 1.2%
- % change of MS signal compared to control sample (STK33): 21.1%
- % change of MS signal compared to control sample (TAK1): 14.5%
- % change of MS signal compared to control sample (VRK2): −2.3%
- % change of MS signal compared to control sample (Wnk1, Wnk2, Wnk4): −6.6%
- % change of MS signal compared to control sample (eEF2K): 4.9%
- % change of MS signal compared to control sample (p70S6K): −70.1%
